Laboratory results published in ChEMBL document CHEMBL3507680, “University of Dundee, Gates Library screen for HepG2 cell viability”.

Test: Human HepG2 cell viability assay in 384 well format
Assay type: toxicity, cell-based
Parameters: dose 125 nL, time 70.5 hour; cytotoxicity at 70.5 h: concentration not given beside the values
Details: HepG2 cells, read-out: Inhibition

Row | Compound | cytotoxicity at 70.5 h [%]
1 | CCc1noc(CC)c1CNC(=O)Nc1cccc([S+](C)[O-])c1 (stereo unspecified) | -1.9
2 | O=C(c1ccc2ccccc2n1)N1CCC2(CCN2c2ncccn2)C1 (stereo unspecified) | 2.64
3 | O=C(NCC1CCN(c2ccncc2)CC1)C(O)c1ccccc1 (stereo unspecified) | 7.47
4 | CCS(=O)(=O)c1ncc(CN(C)C)n1Cc1ccccc1 | -3.58
5 | Cc1cc(C)n(CC2CN(Cc3cccnc3)CCO2)n1 (stereo unspecified) | 3.35
6 | O=C1CCC2(CCCN(C(=O)Cc3ccccc3)C2)N1 (stereo unspecified) | 5.57
7 | CS(=O)(=O)N1C[C@H]2CNC[C@@]2(C(=O)NCCCc2ccccc2)C1 | -3.07
8 | CNC(=O)c1sc2ccccc2c1CC1CCCN1Cc1cnc(C)s1 (stereo unspecified) | -10.5
9 | O=C(Cc1ccsc1)N1CCC(c2noc(-c3cccnc3)n2)CC1 | -2.37
10 | COCC1Cn2nnc(-c3cnn(C)c3)c2CN1Cc1ccco1 (stereo unspecified) | 5.04
11 | Cc1nc(-c2ccsc2)ccc1C(=O)N(C)CC1CC1 | -7.16
12 | CC(Cn1cccn1)NC(=O)NCc1ccc(C(N)=O)cc1 (stereo unspecified) | -15.4
13 | CCOCc1ccccc1NC(=O)NCC(C)(O)c1cc(C)oc1C (stereo unspecified) | -1.67
14 | Cc1nc(CN2CCCC(N(C)CCCc3ccccc3)C2)no1 (stereo unspecified) | -5.01
15 | CNC(=O)c1cc2c(nc1NCC(C)C)CCN(CC1CC1)CC2 | -9.46
16 | O=C(Cc1csc(-c2ccccc2F)n1)NCc1cccc(C(=O)O)c1 | -17.7
17 | Cc1noc([C@@]23CCO[C@@H]2CCN(C(=O)c2sccc2C)C3)n1 | -1.6
18 | CCS(=O)(=O)c1ccccc1N1CCC(NC(=O)c2ccc[nH]2)CC1 | -1.59
19 | Cc1nc(CN(C)C2CCCN(c3ccccc3)C2)no1 (stereo unspecified) | -3.56
20 | CN1CCC(Cc2noc(-c3cn(Cc4ccccc4Cl)nn3)n2)CC1 | 0.52
21 | COCC(=O)N1CC(c2ccnc(Nc3cc(C(F)(F)F)ccn3)n2)C1 | 10.3

Row | Compound | cytotoxicity at 70.5 h [%]
22 | CN1CCCC1c1ccnc2nccn12 (stereo unspecified) | -7.34
23 | COc1ccc(-c2nnsc2C(=O)N2CCSCC2)cc1 | -8.21
24 | O=C(NCC1(O)CCSCC1)c1nccc2ccccc12 | 13.5
25 | CCC[C@@H]1CN(C(=O)c2ccccc2-c2ncc[nH]2)C[C@H]1N(C)C | -2.55
26 | Cc1nn(C)cc1-c1cc(C(=O)NCC(C)(C)c2ccc(F)cc2)n[nH]1 | 4.21
27 | N#Cc1ccc(CN2CCC(c3ccnn3CCO)CC2)cc1 | -2.2
28 | CCc1csc(CNc2nc3c(s2)c(C)nn3C)n1 | 10.5
29 | OC1(CN2CCCCC2)CCN(c2cc(C(F)(F)F)ccn2)C1 (stereo unspecified) | -22.3
30 | COc1ccc(F)cc1C(C)NC(=O)Nc1nnc(C)s1 (stereo unspecified) | -12.6
31 | CC(C)(C)C(=O)NS(=O)(=O)c1ccc(F)cc1C(F)(F)F | -3.41
32 | CC(C)n1cnc2c1C(C(=O)N1CCCC1)N(S(C)(=O)=O)CC2 (stereo unspecified) | -0.195
33 | O=C(NCC1CCOC1)c1cc(-c2ccc(Cl)cc2)n[nH]1 (stereo unspecified) | 20.6
34 | Cc1ccc(C2CSCCN2C(=O)c2ccccn2)cc1 (stereo unspecified) | -13.2
35 | CC(C)(C)C(=O)N1CCCC(c2ncncc2-c2ccncc2)C1 (stereo unspecified) | -4.45
36 | CCS(=O)(=O)N1C[C@@H]2CN(Cc3cnn(C)c3)CCO[C@@H]2C1 | 2.4
37 | O=C(NCC(F)(F)F)C(c1cccnc1)N1CCOCC1 (stereo unspecified) | -5.8
38 | CCc1c(C)sc2ncnc(N3C[C@H](O)[C@@H](N4CCCC4)C3)c12 | -2.63
39 | CC(C)CCn1nc2ccc(S(=O)(=O)N3CCOCC3)cn2c1=O | -7.21
40 | N#Cc1ccc(CNC(=O)NCCNC(=O)C2CCCC2)c(F)c1 | 13.4
41 | Cc1nnc(CSc2ccc(C(F)(F)F)cn2)o1 | 2.72
42 | CCn1nc(C)c(C(=O)N2C[C@@H](CN(C)CCOC)[C@@H](CO)C2)c1C | -6.72

Row | Compound | cytotoxicity at 70.5 h [%]
43 | Cc1nn(CCNC(=O)c2cc(C3CC3)[nH]n2)c(C)c1Cl | 3.19
44 | CS(=O)(=O)NCc1cc(-c2cc(F)cc(F)c2)nc(N2CC[C@H](O)C2)n1 | -10.5
45 | CN(C)C(=O)N1CCN(C(=O)c2ccc(Cl)c(Cl)c2)C(C)(C)C1 | 0.62
46 | CCn1cc(CN2CCCN(C(=O)c3ccc(C)nc3)CC2)cn1 | -6.02
47 | CCSCCC(=O)NCc1cc2n(n1)CCN(C(=O)N(C)C)C2 | -6.68
48 | C=C(C)COc1ccc(C(=O)NCCn2c(C)cc(C)nc2=O)cc1 | -6.24
49 | CN1C[C@@H]2CC[C@H](CC1=O)N2C(=O)c1ccc(-c2ccccc2)[nH]c1=O | -8.24
50 | Cc1cn(CC(=O)NC2CCC(C(=O)O)CC2)c2ccccc12 (stereo unspecified) | -6.01
51 | Cc1cnc(NCc2ccncc2)nc1-c1cnn(C)c1 | 12.6
52 | CN1CCN(Cc2cccc(C#N)c2)Cc2cccnc21 | -7.78
53 | Cc1cc(N(C)Cc2cc(C(C)(C)C)n[nH]2)nc(-c2cccnc2)n1 | 41.6
54 | Cc1cc(CS(=O)(=O)c2ccccc2)no1 | -5.49
55 | CCN(CC)S(=O)(=O)N1CCCC1c1nnc2n1CCCCC2 (stereo unspecified) | -8.56
56 | NC(=O)CN1CCCCC1c1ccc(-n2ccnc2)nc1 (stereo unspecified) | -3.85
57 | CNC(=O)CC1CCN(Cc2nc(-c3cccc(Cl)c3)oc2C)CC1 | -7.93
58 | O=C(NCC1CCC2(CCNCC2)CO1)c1cnccn1 (stereo unspecified) | 9.23
59 | CC(=O)NC1CCCN(C(=O)Nc2cnc3c(cnn3C(C)C)c2)C1 (stereo unspecified) | -2.01
60 | COc1ccc(-c2nnc(SC(C)C(=O)NC(C)(C)C)[nH]2)c(OC)c1 (stereo unspecified) | 32.5
61 | CN(Cc1nnn(CC2CCC2)n1)C(=O)c1ccccc1 | -2.78
62 | NC(=O)CCN(CC(=O)NCc1ccccn1)c1ccc(F)cc1 | -9.69
63 | Cc1nnc(CN2CCCC2c2cccc(Br)c2)o1 (stereo unspecified) | -4.5

Row | Compound | cytotoxicity at 70.5 h [%]
64 | Cc1noc(C)c1CSC1CCCN(c2cnn(C)c2)C1=O (stereo unspecified) | 5.52
65 | CCc1cnc(N2CCN(Cc3ccno3)CC2)s1 | -1.37
66 | O=S1(=O)CCC(N(Cc2nc(-c3ccccn3)no2)Cc2cccs2)C1 (stereo unspecified) | -4.77
67 | CS(=O)(=O)CCCN(CCc1cccc(F)c1)C1CC1 | 21.4
68 | CC(C)(C(=O)NCC1CCN(Cc2cccnc2)C1)c1ccccc1 (stereo unspecified) | -4.33
69 | CN(C)CC(=O)N1CC2(CCN(C(=O)Nc3ccccc3)C2)C1 | 22.9
70 | OC1CCN(CCCNc2ncccn2)CC1 | 3.78
71 | CC(C)N1CCO[C@H]2CN(C(=O)c3ccoc3)C[C@H]21 | -4.51
72 | CCN1CC2(CC1=O)CN(C(=O)C(C)C)CCN(S(=O)(=O)CC)C2 (stereo unspecified) | -4.9
73 | CCOCCC(=O)NC(Cc1ccc(C)cc1)c1ccccn1 (stereo unspecified) | 0.116
74 | CCCn1cc(NC(=O)Nc2ccc(F)c(C(=O)NC)c2)cn1 | -4.76
75 | COCC(=O)Nc1ccnc(OCCN(C)C)c1 | 4.63
76 | CN1CCC(N2CCN3C(=O)NC[C@H]3C2)CC1 | -3.25
77 | O=C(NCC1CCCO1)c1nc2c(s1)CCCN2C(=O)C1CC1 (stereo unspecified) | -9.75
78 | COc1c(CNCc2nnc3n2CCCCC3)c(C(C)C)nn1C | -4.88
79 | O=C1CN(Cc2ccc(-c3ccccc3C(=O)O)cc2)CCN1 | 37.1
80 | Cn1cc(CN2CCCCC2c2ccc(-c3cccc(Cl)c3)nc2)cn1 (stereo unspecified) | -4.26
81 | Cc1cnn(CC2CCCCN2C(=O)Cc2c(C)nn(C)c2C)c1 (stereo unspecified) | -3.41
